Experimental data from patent US20220296595A1, “CDK INHIBITORS” (QILU REGOR THERAPEUTICS INC., priority 2019, published 2022).
pIC50: −log10 of the molar value. Like-named read-outs stand apart in the source and are kept apart here.

Key:
CDK4/CyclinD1 = target: T1, CDK4/CyclinD1 (Homo sapiens, UniProt P11802); experiment: Assay for inhibition of CDK4/CyclinD1 (Caliper microfluidic kinase assay); format: biochemical
T1 construct: purchased Thermofisher PR8064A
Outline: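 IC50 was obtained by 4-parameter sigmoidal fitting after 1 nM CDK4/CyclinD1, 200 μM ATP and 1 μM FL-34 substrate reacted for 3 h at room temperature (pH 7.5 HEPES, 10 mM MgCl2). After EDTA quench, substrate and product were separated and detected on a Caliper microfluidic chip.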

CDK6/CyclinD3 = target: T2, CDK6/CyclinD3 (Homo sapiens, UniProt Q00534); experiment: Assay for inhibition of CDK6/CyclinD3 (Caliper microfluidic kinase assay); format: biochemical
T2 construct: purchased Carna 04-107
Outline: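 IC50s came from four-parameter dose-response fits of microfluidic substrate/product separation data. Reactions held 2 nM CDK6/CyclinD3, 300 μM ATP and 1 μM 5-FAM peptide FL-34 in pH 7.5 HEPES/MgCl2 buffer, ran 3 hours at room temperature, then were quenched with EDTA.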

CDK2/CyclinE1 = target: T3, CDK2/CyclinE1 (Homo sapiens, UniProt P24941); experiment: Assay for inhibition of CDK2/CyclinE1 (Caliper microfluidic kinase assay); format: biochemical; settings: read-out: CDK2 IC50
T3 construct: purchased SignalChem C29-18G
Outline: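 IC50 came from 4-parameter fits of substrate-to-product conversion, separated on a Caliper chip after an EDTA stop. Reactions ran 3 hours at room temperature with 100 μM ATP, 5 μM fluorescent FL-18 peptide and 5 nM enzyme in 100 mM HEPES pH 7.5, 10 mM MgCl2.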

T47D breast cancer cells = experiment: Anti-proliferation assay in T47D cell (Cyquant, day 6); format: cell-based, human; settings: Homo sapiens, T47D, anti-proliferation, T47D cells; read-out: T47D IC50
Outline: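 A ten-point, 3-fold compound series (10 μM down to 0.51 nM) was applied to overnight-settled cells in 10% FBS RPMI 1640, and DNA content was read by CyQuant fluorescence 6 days later. An untreated plate read before dosing served as baseline for subtraction before IC50 fitting.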

[1] = test system: phosphorylation of Retinoblastoma Protein (pRb Ser807/811 or Ser780) in T47D cells; experiment: Inhibition of phosphorylation of retinoblastoma protein (pRb) in T47D cell (ELISA); format: cell-based, human; settings: Homo sapiens, T47D, read-out: Phospho T47D Ser807 IC50, pRb Ser807 phosphorylation, T47D cells
Outline: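 T47D cells in RPMI 1640 + 10% FBS, adhered overnight, then treated 24 h with 3-fold compound titrations (top concentration […]). Lysates assayed by sandwich ELISA for pRb Ser807/811 or Ser780 with HRP/TMB detection. IC50 from 4-parameter sigmoidal fit.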

T1 sequence (P11802 whole entry): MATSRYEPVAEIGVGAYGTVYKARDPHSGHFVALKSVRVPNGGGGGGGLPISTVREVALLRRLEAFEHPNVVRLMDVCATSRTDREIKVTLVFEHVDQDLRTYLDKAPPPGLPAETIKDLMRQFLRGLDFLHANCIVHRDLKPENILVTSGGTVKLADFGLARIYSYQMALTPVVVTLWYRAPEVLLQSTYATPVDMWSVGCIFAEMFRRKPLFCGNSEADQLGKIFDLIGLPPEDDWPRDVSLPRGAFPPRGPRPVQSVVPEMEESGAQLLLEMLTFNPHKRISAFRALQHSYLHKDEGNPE
T1 sequence (P24385 whole entry partner): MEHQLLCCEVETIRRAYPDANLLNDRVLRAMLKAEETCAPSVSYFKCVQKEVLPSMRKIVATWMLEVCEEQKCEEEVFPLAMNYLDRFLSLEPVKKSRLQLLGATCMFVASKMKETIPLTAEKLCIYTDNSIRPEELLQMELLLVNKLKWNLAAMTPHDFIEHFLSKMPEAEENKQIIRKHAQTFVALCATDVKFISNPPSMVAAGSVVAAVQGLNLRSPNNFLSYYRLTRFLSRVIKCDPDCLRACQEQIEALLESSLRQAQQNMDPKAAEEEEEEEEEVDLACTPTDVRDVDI
T2 sequence (Q00534 whole entry): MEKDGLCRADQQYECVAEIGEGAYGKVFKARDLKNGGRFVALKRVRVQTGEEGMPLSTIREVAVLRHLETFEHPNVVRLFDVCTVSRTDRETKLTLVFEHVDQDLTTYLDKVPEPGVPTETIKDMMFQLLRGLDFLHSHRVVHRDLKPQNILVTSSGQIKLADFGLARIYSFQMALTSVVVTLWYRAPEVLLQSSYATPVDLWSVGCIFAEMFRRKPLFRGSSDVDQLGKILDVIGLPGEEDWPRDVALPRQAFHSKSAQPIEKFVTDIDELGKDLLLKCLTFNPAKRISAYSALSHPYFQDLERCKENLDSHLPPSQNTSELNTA
T2 sequence (P30281 whole entry partner): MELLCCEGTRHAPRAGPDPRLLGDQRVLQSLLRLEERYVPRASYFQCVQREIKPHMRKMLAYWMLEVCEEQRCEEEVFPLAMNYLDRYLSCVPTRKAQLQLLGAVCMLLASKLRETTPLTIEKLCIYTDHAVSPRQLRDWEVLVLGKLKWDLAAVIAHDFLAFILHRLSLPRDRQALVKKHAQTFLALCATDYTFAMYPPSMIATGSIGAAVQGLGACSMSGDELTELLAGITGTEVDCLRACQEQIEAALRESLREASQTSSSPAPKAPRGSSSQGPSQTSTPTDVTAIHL

| SMILES | pIC50 (CDK4/CyclinD1; CDK4/CyclinD1, 200 μM ATP) | pIC50 (CDK6/CyclinD3; CDK6/CyclinD3, 300 μM ATP) | pIC50 (CDK2/CyclinE1; CDK2/CyclinE1, 100 μM ATP) | pIC50 (T47D breast cancer cells) | pIC50 [1] | pIC50 (CDK4/CyclinD1; CDK4/CyclinD1) | pIC50 (CDK6/CyclinD3; CDK6/CyclinD3) | pIC50 (CDK2/CyclinE1; CDK2/CyclinE1) |
| --- | --- | --- | --- | --- | --- | --- | --- | --- |
| Cc1nc2c(F)nc(-c3ccnc(Nc4ccc(N5CCCC(N(C)C)C5=O)cn4)n3)cc2n1C(C)C (stereo not drawn) [Synthetic Example 301, 3-(dimethylamino)-1-[6-[[4-(4-fluoro-1-isopropyl-2-methyl-imidazo[4,5-c]pyridin-6-yl)pyrimidin-2-yl]amino]-3-pyridyl]piperidin-2-one] | > 8.00 | > 8.00 | < 6.00 | > 7.00 | > 7.00 | – | – | – |
| CC(C)c1cnn2ccc(-c3nc(Nc4ccc(N5CCC(N(C)C)CC5=O)cn4)ncc3F)cc12 (stereo not drawn) [compound 3] | > 8.00 | 7.00 to 8.00 | 7.00 to 8.00 | > 7.00 | > 7.00 | – | – | – |
| CC(C)c1cnn2ccc(-c3nc(Nc4ccc(N5CCOCC5=O)cc4F)ncc3F)cc12 [compound 7] | > 8.00 | 7.00 to 8.00 | > 8.00 | 6.30 to 7.00 | 6.30 to 7.00 | – | – | – |
| CC(C)c1cnn2ccc(-c3nc(Nc4ccc(N5CCOCC5=O)cc4)ncc3F)cc12 [compound 25] | > 8.00 | 7.00 to 8.00 | > 8.00 | > 7.00 | > 7.00 | – | – | – |
| CC(C)c1cnn2ccc(-c3nc(Nc4ccc(N5CCOCC5=O)c(F)c4)ncc3F)cc12 [compound 26] | > 8.00 | 7.00 to 8.00 | > 8.00 | 6.30 to 7.00 | > 7.00 | – | – | – |
| CC(C)c1cnn2ccc(-c3nc(Nc4ccc(S(N)(=O)=O)cc4)ncc3F)cc12 [compound 27] | 7.00 to 8.00 | 6.00 to 7.00 | > 8.00 | > 7.00 | 6.30 to 7.00 | – | – | – |
| CC(C)c1cnn2ccc(-c3ccnc(Nc4ccc(N5CCOCC5=O)cn4)n3)cc12 [compound 28] | > 8.00 | 7.00 to 8.00 | > 8.00 | > 7.00 | > 7.00 | – | – | – |
| CC(C)c1cnn2ccc(-c3ccnc(Nc4ccc(N5CCCNCC5=O)cn4)n3)cc12 [compound 30] | > 8.00 | 7.00 to 8.00 | 7.00 to 8.00 | 6.30 to 7.00 | > 7.00 | – | – | – |
| CC(C)c1cnn2cc(-c3ccnc(Nc4ccc(N5CCNCCC5=O)cn4)n3)ccc12 [compound 31] | > 8.00 | 7.00 to 8.00 | 7.00 to 8.00 | > 7.00 | > 7.00 | – | – | – |
| CC(C)c1cnn2ccc(-c3nc(Nc4ccc(N5CCCNCC5=O)cn4)ncc3F)cc12 [compound 33] | > 8.00 | 7.00 to 8.00 | 7.00 to 8.00 | > 7.00 | > 7.00 | – | – | – |
| CC(C)c1cnn2ccc(-c3nc(Nc4ccc(N5CCNCCC5=O)cn4)ncc3F)cc12 [compound 34] | > 8.00 | 7.00 to 8.00 | 7.00 to 8.00 | > 7.00 | > 7.00 | – | – | – |
| CC(C)c1cnn2ccc(-c3ccnc(Nc4ccc(N5CCNCC5=O)cn4)n3)cc12 [compound 37] | > 8.00 | 7.00 to 8.00 | > 8.00 | > 7.00 | > 7.00 | – | – | – |
| CC(C)c1cnn2ccc(-c3ccnc(Nc4ccc(N5CCN(C6CCNCC6)CC5=O)cn4)n3)cc12 [compound 41] | > 8.00 | 7.00 to 8.00 | 7.00 to 8.00 | > 7.00 | > 7.00 | – | – | – |
| CC(C)c1cnn2ccc(-c3nc(Nc4ccc(N5CCN(C6CNC6)CCC5=O)cn4)ncc3F)cc12 [compound 42] | > 8.00 | 7.00 to 8.00 | 7.00 to 8.00 | > 7.00 | > 7.00 | – | – | – |
| CCN1CCC(Cn2ccc(Nc3ncc(F)c(-c4ccn5ncc(C(C)C)c5c4)n3)cc2=O)CC1 [compound 44] | > 8.00 | 7.00 to 8.00 | 6.00 to 7.00 | < 6.00 | 6.00 to 6.30 | – | – | – |
| CCN1CCC(COc2cc(Nc3ncc(F)c(-c4ccn5ncc(C(C)C)c5c4)n3)ccn2)CC1 [compound 45] | > 8.00 | 7.00 to 8.00 | > 8.00 | 6.30 to 7.00 | 6.00 to 6.30 | – | – | – |
| CC(C)c1cnn2ccc(-c3nc(Nc4ccc(N5CCN(C)CCC5=O)cn4)ncc3F)cc12 [compound 46] | > 8.00 | 7.00 to 8.00 | 7.00 to 8.00 | > 7.00 | > 7.00 | – | – | – |
| CCN1CCC(=O)N(c2ccc(Nc3ncc(F)c(-c4ccn5ncc(C(C)C)c5c4)n3)nc2)CC1 [compound 47] | > 8.00 | 7.00 to 8.00 | 7.00 to 8.00 | > 7.00 | > 7.00 | – | – | – |
| CCN1CCN(c2ccc(Nc3ncc(F)c(-c4ccn5ncc(C(C)C)c5c4)n3)nc2)C(=O)C1 [compound 48] | > 8.00 | 7.00 to 8.00 | 7.00 to 8.00 | > 7.00 | > 7.00 | – | – | – |
| CC(C)c1cnn2ccc(-c3nc(Nc4ccc(N5CCN(S(C)(=O)=O)CC5=O)cn4)ncc3F)cc12 [compound 51] | > 8.00 | 7.00 to 8.00 | 7.00 to 8.00 | > 7.00 | > 7.00 | – | – | – |
| CC(C)c1cnn2ccc(-c3nc(Nc4ccc(N5CCN(CC(F)(F)F)CC5=O)cn4)ncc3F)cc12 [compound 53] | > 8.00 | 7.00 to 8.00 | 7.00 to 8.00 | 6.30 to 7.00 | > 7.00 | – | – | – |
| CC(C)n1cnc2c(OC(F)F)nc(-c3ccnc(Nc4ccc(N5CCOCC5=O)cn4)n3)cc21 [compound 63] | – | – | – | 6.30 to 7.00 | > 7.00 | > 8.00 | 7.00 to 8.00 | 6.00 to 7.00 |
| COc1nc(-c2ccnc(Nc3ccc(CN4CCC(C#N)CC4)cn3)n2)cc2c1ncn2C(C)C [compound 68] | – | – | – | 6.30 to 7.00 | > 7.00 | > 8.00 | 7.00 to 8.00 | < 6.00 |
| COc1nc(-c2nc(Nc3ccc(N4CCC(N(C)C)CC4)cn3)ncc2F)cc2c1ncn2C(C)C [compound 70] | – | – | – | 6.30 to 7.00 | > 7.00 | > 8.00 | 7.00 to 8.00 | < 6.00 |
| COc1nc(-c2nc(Nc3ccc(N4CCOCCC4=O)cn3)ncc2F)cc2c1nc(C)n2C(C)C [compound 73] | – | – | – | 6.00 to 6.30 | > 7.00 | > 8.00 | 7.00 to 8.00 | < 6.00 |
| COc1nc(-c2nc(Nc3ccc(N4CCCOCC4=O)cn3)ncc2F)cc2c1nc(C)n2C(C)C [compound 74] | – | – | – | 6.30 to 7.00 | 6.30 to 7.00 | > 8.00 | 7.00 to 8.00 | < 6.00 |
| COc1nc(-c2ccnc(Nc3ccc(N4CCOCC4=O)cn3)n2)cc2c1nc(C)n2C(C)C [compound 77] | – | – | – | 6.30 to 7.00 | > 7.00 | > 8.00 | 7.00 to 8.00 | 6.00 to 7.00 |
